Values joined by “and” are separate entries in the source; they are usually repeats but may differ in a detail not shown here. Identical values can stand only once.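 A five-concentration, 48-hour dose response in 96-well plates underlies each endpoint, interpolated linearly between surrounding concentrations. GI50 is the concentration that inhibits growth by half. TGI is the concentration that stops growth completely.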
Key:
Experiment in all cases: NCI tumour cell line growth inhibition, 48 h
[1] = tested on: UO-31 renal
[2] = tested on: DU-145 prostate
[3] = tested on: SF-268 CNS
[4] = tested on: MOLT-4 leukemia
[5] = tested on: EKVX NSCLC
[6] = tested on: SNB-75 CNS
[7] = tested on: SF-539 CNS
[8] = tested on: SN12C renal

Compound	GI50 [1] [µM]	TGI [1]	GI50 [2] [µM]	TGI [2] [µM]	GI50 [3] [µM]	TGI [3] [µM]	GI50 [4] [µM]	TGI [4] [µM]	GI50 [5] [µM]	TGI [5] [µM]	GI50 [6] [µM]	TGI [6] [µM]	GI50 [7] [µM]	TGI [7] [µM]	TGI [8] [µM]	GI50 [8] [µM]
CCCc1cc(=O)n2c(C(=O)Nc3ccc(F)cc3)c(C(=O)Nc3ccc(F)cc3)sc2n1	27.6	101 µM	124	> 160	18.8	95.6	> 160	> 160	> 160	> 160	3.48	13.8	> 160	> 160	–	–
COc1cc(C2C3=C(COC3=O)N(CCO)c3cc4c(cc32)OCCO4)cc(OC)c1OC (stereo not drawn)	1.82	> 50 µM	0.345	0.943	0.374	> 50	0.242	> 11.4	0.413	> 50	0.183	> 50	0.147	–	> 50	–
Cc1ccc([N+](=O)[O-])c2c(NCCNC(=O)c3cc(C(=O)NCCNc4ccnc5c(C)ccc([N+](=O)[O-])c45)n(C)n3)ccnc12	–	> 100 µM	–	> 100	–	> 100	–	> 46.4	–	> 100	–	> 87.3	–	> 100	> 70.9	–
O=C(/C=C/C=C/c1ccccc1)c1ccco1	10.6	22.6 µM	12.5	25.4	18.2	41.1	1.92	21.5	15.5	62.1	18	72.5	17.1	31.5	34.9	16
COc1ccc(-c2nc(-c3nc4ccc(C)cc4[nH]3)cc3c2[nH]c2ccccc23)cc1	2.99	> 100 µM	5.02	> 100	6.8	> 100	2.31	10	–	–	3.43	> 100	3.92	> 100	> 100	3.96
Cc1ccc(-c2nc(/C=N/Nc3cc(C)nc4ccc(Cl)cc34)c(C)o2)cc1	1.62	2.98 µM	2.49	6.67	–	–	2.02	4.88	1.7	3.21	1.55	3.2	1.78	3.29	3.49	1.79
c1ccc(OCCC[P+](c2ccccc2)(c2ccccc2)c2ccccc2)cc1	13.9	36.6 µM	3.19	19.6	3.82	19.2	3.12	13.7	–	–	1.27	6.7	3.07	18.3	12.5	2.61
CC/C(Cc1ccccc1)=C(\c1ccc(OCCN2CCCC2)cc1)c1ccc(OC(=O)NCc2ccccc2)cc1	1.61	3 µM	2.14	4.7	1.81	3.77	2.23	5.66	2.37	7.39	2.13	6.53	1.7	3.09	3.33	1.81
O=C(O)/C(Cc1ccnc2ccccc12)=N\O	–	> 100 µM	–	> 100	–	> 100	–	> 100	–	> 100	–	> 100	–	> 100	> 100	–
CN(C)CCCn1c(=O)c2ccccc2c2cnc3[nH]ccc3c21	–	–	2.14	8.97	1.44	5.02	0.838	11	2.27	8.43	1.17	3.6	2.34	7.04	14.6	2.17
Nc1nc2c(C(=O)NCc3cccs3)nnn2c2cccc(Cl)c12	–	> 100 µM	–	> 100	–	> 100	–	> 100	–	> 100	–	–	–	> 100	> 100	–
CCOC(=O)C(Cc1ccc(N(CCCl)CCCl)cc1)NC(=O)C(Cc1ccccc1)NC=O (stereo not drawn)	–	0.273 µM	–	0.38	–	0.299	–	0.161	–	0.538	–	–	–	0.316	0.294	–
Cc1cc(C)c(C#N)c(Sc2nc(C)c([N+](=O)[O-])c(C)c2C#N)n1	1.81	4.01 µM	2.95	11.1	3.26	11.8	3.03	> 100	–	–	3.29	21.8	2.43	6	5.67	2.26
COc1ccc(-c2ccc(/C=N/n3c(COc4ccccc4Cl)nn(CN4CCOCC4)c3=S)o2)c([N+](=O)[O-])c1	37.1	> 100 µM	34.1	> 100	24	63.4	19.3	51.7	54.9	> 100	–	–	28.6	60.8	96.7	32
[N-]=[N+]=NCCCn1c2c(c3ccc([N+](=O)[O-])cc3c1=O)C(=O)c1cc(Br)ccc1-2	> 100	> 100 µM	14.9	> 100	> 100	> 100	1.15	> 100	> 100	> 100	–	–	> 100	> 100	> 100	> 100
Cc1cc(N(CCOS(C)(=O)=O)CCOS(C)(=O)=O)ccc1C(=O)O	> 100	> 100 µM	> 100	> 100	> 100	> 100	–	–	> 100	> 100	–	–	–	–	> 100	> 100
O=C(NNc1ccc(Cl)cc1)C1CCC(CNS(=O)(=O)c2ccccc2Cl)CC1 (stereo not drawn)	56.2	> 100 µM	31.6	> 100	8.31	> 100	74.4	> 100	11	56.2	–	–	17.4	45.1	50.9	14.7
CSc1nc2nc3c(nc2c(=O)n1C)C(=O)c1ccccc1C3=O	0.236	0.768 µM	0.216	0.623	0.294	1.09	0.227	0.581	–	–	0.128	0.266	0.196	0.384	0.307	0.157
Cn1cc(C2=C(c3c[nH]c4ccccc34)C(=O)NC2=O)c2ccccc21	0.334	> 25 µM	2.37	> 25	1.1	> 25	0.458	–	–	–	0.071	> 7.62	0.195	1.14	> 25	1.32
CN1Cc2ccccc2/C=C\c2ccccc21	–	> 100 µM	–	> 100	–	> 100	–	–	–	92.7	–	> 100	–	> 100	> 100	–
C=C1C(O)C2CC(C)(CO)C(=O)C2=C(CC(C)C)C12CC2 (stereo not drawn)	> 100	> 100 µM	86.4	> 100	> 100	> 100	81.8	> 100	69.5	> 100	–	–	51.6	> 100	> 100	> 100
COc1ccc(-c2cncn2-c2cc(OC)c(OC)c(OC)c2)cc1	0.0936	18.2 µM	0.151	9.92	2.01	59.7	1.87	> 77	3.06	> 100	–	–	0.0671	0.46	> 100	0.527
COC(=O)c1c(-c2cccs2)oc(-c2cccs2)c1C(=O)OC	19.3	60.1 µM	> 100	> 100	42	> 100	–	–	56.8	> 100	> 73.6	> 100	84.4	> 100	> 100	61.6
Clc1ccc(-c2c3ccc(=[N+]4CCCCC4)cc-3oc3cc(N4CCCCC4)ccc23)cc1	–	–	0.0632	0.214	–	–	0.159	0.741	–	–	0.0494	0.333	–	–	–	–
COc1cc(/C=C/c2ccc(O)c(OC)c2)cc(OC)c1	–	66.2 µM	–	61.5	–	> 100	–	> 100	–	> 100	–	97	–	–	–	–
N#CC(C(=O)CCCC(=O)Nc1ccc(Cl)cc1Cl)c1ccccc1 (stereo not drawn)	–	> 100 µM	–	–	–	> 100	–	> 100	–	> 100	–	–	–	> 100	> 100	–
CCCCCC(O)C(O)CCC[C@H](O)[C@H]1CC[C@H]([C@H]2CC[C@H]([C@H](O)CCCCCCCCCCCCC3=C[C@H](C)OC3=O)O2)O1 (stereo partly drawn)	4.46	5.67 µM and 20.5 µM	–	–	12.4	40.8	–	–	6.94	26.4	15.2	37.9	12.1	37	66.6	13.6

From PubChem BioAssay (NCI)
